This passage reports logP and solubility results from the OPERA property sets (Mansouri et al. 2018).

≈ marks a conversion by molar mass, not a printed value.

Conditions in one data set: not given
As for `CCOC(=O)C(=Cc1ccc(OC)c(OC)c1)NC=O`, the logP amounted to 1.97.
In turn, `CCOC(=O)C(=Cc1cccc([N+](=O)[O-])c1)NC=O` came in with a logP of 2.05. The logP values of the last two molecules are within 0.2 log units of each other.
On the same count and under the same terms, the value for `CCOC(=O)C(=Cc1ccc(Cl)cc1)NC=O` was 2.65; that for `CCOC(=O)C(=Cc1ccc2c(c1)OCO2)NC=O` was 1.66.
The same measure, in the same setting: the value for `CCOC(=O)C(=Cc1ccoc1)NC=O` was 2.08; that for `CCOC(=O)C(=Cc1ccc([N+](=O)[O-])cc1)NC=O` was 2.05; that for `CCOC(=O)C(=Cc1ccc(OC)cc1)NC=O` was 2.22.
On the same count and under the same terms, the value for `CCOC(=O)C(=Cc1ccccc1)NC=O` was 2.48; that for `CCOC(=O)C(=Cc1cccc(Cl)c1)NC=O` was 2.51; that for `CCOC(=O)C(=Cc1ccccc1Cl)NC=O` was 2.41.

The same data set, now with this note: 25 °C.
As to `CCOC(=O)C(=Cc1ccoc1)NC=O`, the solubility amounted to 1790 µM (≈ 374 µg/mL). This lies in the millimolar range.
